Assay results: ChEMBL document CHEMBL3046391, “Acute toxicity and sublethal effects of methoxyfenozide and thiodicarb on survival, development and reproduction of Helicoverpa armigera (Lepidoptera: Noctuidae)” (2013)
Converted amounts (≈) assume the structure as drawn.

Tests used:
Assay type in all cases: functional
[1] = test system: Helicoverpa armigera; assay: Insecticidal activity against third-instar larval stage of Helicoverpa armigera fed with artificial diet containing compound assessed as increase in larval development time at LC30 concentration incubated for 24 hr
[2] = test system: Helicoverpa armigera; assay: Insecticidal activity against third-instar larval stage of Helicoverpa armigera fed with artificial diet containing compound assessed as mortality measured at 24 hr intervals beginning at 24 hr after initial drug exposure; conditions: for LC50: Helicoverpa armigera, Instar larval stage, 24 h
[3] = test system: Helicoverpa armigera; assay: Insecticidal activity against Helicoverpa armigera adults emerged from compound-treated third-instar larval stage assessed as decrease in longevity rate at LC30 concentration; parameters: scale not given: the % may be the effect or the level left
[4] = test system: Helicoverpa armigera; assay: Insecticidal activity against Helicoverpa armigera fed with artificial diet containing compound assessed as mortality at LC30 concentration measured at 24 hr intervals beginning at 24 hr after initial drug exposure
[5] = test system: Helicoverpa armigera; assay: Insecticidal activity against Helicoverpa armigera adults emerged from compound-treated third-instar larval stage assessed as decrease in fecundity rate at LC30 concentration; parameters: scale not given: the % may be the effect or the level left
[6] = test system: Helicoverpa armigera; assay: Insecticidal activity against third-instar larval stage of Helicoverpa armigera fed with artificial diet containing compound assessed as mortality at LC30 concentration measured at 24 hr intervals beginning at 24 hr after initial drug exposure
[7] = test system: Helicoverpa armigera; assay: Insecticidal activity against Helicoverpa armigera pupae assessed as increase in pupal development time at LC30 concentration treated during third-instar larval stage for 24 hr
[8] = test system: Helicoverpa armigera; assay: Insecticidal activity against Helicoverpa armigera assessed as pupal weight at LC30 concentration treated during third-instar larval stage for 24 hr (reference value: 311 +/-9 mg)

| SMILES | Time [1] | LC30 [2] | LC90 [2] | LC50 [2] | Activity [3] | mortality [4] | Activity [5] | mortality [6] | Time [7] | Activity [8] |
| --- | --- | --- | --- | --- | --- | --- | --- | --- | --- | --- |
| COc1cccc(C(=O)NN(C(=O)c2cc(C)cc(C)c2)C(C)(C)C)c1C [METHOXYFENOZIDE] | 2.1 days | 148 ppm | 560 ppm | 218 µg/mL (≈ 592 µM) | 27.5% | 32% | 35% | 32% | 2.3 days | 253 mg |
| CS/C(C)=N\OC(=O)N(C)SN(C)C(=O)O/N=C(\C)SC [THIODICARB] | 5.3 days | 550 ppm | 1987 ppm | 798 µg/mL (≈ 2250 µM) | 23% | 20% | 30% | 20% | 0.5 days | 294 mg |
